Patent publication US20070003536A1, “Topical skin compositions, their preparation, and their use” (priority 2000, published 2007)

Experiments:
[1] = test system: Human dermal fibroblasts (Hs-27); assay: Procollagen secretion by fibroblasts, energy booster samples with co-stimuli, Example 4; type: cell-based; settings: Media line: stimulus alone, no energy booster (Centella asiatica, vitamin C 0.001%; Biodynes EMPP 0.1%); media control 1533
Description: (§1) Four new samples that boost cellular energy were tested for their ability to augment extracellular matrix component production in response to Centella and Biodynes. Human dermal fibroblasts were used as these cells actively synthesize extracellular matrix components. In addition to measuring procollagen and elastin levels, hyaluronic acid levels were also measured. Hyaluronic acid is a member of the glycosaminoglycan family of compounds. Glycosaminoglycans make up the ground substance of connective tissue, and along with elastin, help provide elasticity to skin. They also hold water and therefore provide viscosity and hydrating properties.
(§2) Samples were diluted in media. Centella asiatica and vitamin C were prepared at 0.001%. Biodynes EMPP was prepared at 0.1%. Centella asiatica was prepared as an extract in DMSO:ethanol:water at 50:30:20. The “energy booster” samples, Seanergilium algae extract, Thiotaine, Sepitonic, and Phytovityl corn kernel extract, were all prepared in media at 0.01, 0.1, and 1.0%. Human dermal fibroblasts (Hs-27) were plated in 24 well plates and were incubated overnight. The cells were treated with the samples at the concentrations indicated for 2 consecutive days. […]

[2] = test system: Human dermal fibroblasts (Hs-27); assay: Elastin secretion by fibroblasts, energy booster samples with co-stimuli, Example 4; type: cell-based; settings: Media line: stimulus alone, no energy booster (Centella asiatica, vitamin C 0.001%; Biodynes EMPP 0.1%)
Description: as §1, §2

[3] = test system: Human dermal fibroblasts (Hs-27); assay: Hyaluronic acid secretion by fibroblasts, energy booster samples with co-stimuli, Example 4; type: cell-based; settings: Media line: stimulus alone, no energy booster (Centella asiatica, vitamin C 0.001%; Biodynes EMPP 0.1%); media control 1112
Description: as §1
Samples were diluted in media. Centella asiatica and vitamin C were prepared at 0.001%. Biodynes EMPP was prepared at 0.1%. Centella asiatica was prepared as an extract in DMSO:ethanol:water at 50:30:20. The “energy booster” samples, Seanergilium algae extract, Thiotaine, Sepitonic, and Phytovityl corn kernel extract, were all prepared in media at 0.01, 0.1, and 1.0%. Human dermal fibroblasts (Hs-27) were plated in 24 well plates and were incubated overnight. […]
Data are expressed as ng hyaluronic acid/ml culture supernatant. The amount of hyaluronic acid in each supernatant was calculated from a standard curve generated using a hyaluronic acid standard supplied with the ELISA kit.

[4] = biological target: T1, MMP-1 (interstitial collagenase) (Homo sapiens, UniProt P03956); assay: MMP-1 activity kit (Amersham); type: biochemical; settings: samples diluted to 100 mg/ml using PBS; FIG. 5
T1 construct: purchased Amersham
T1 sequence (P03956 100-469): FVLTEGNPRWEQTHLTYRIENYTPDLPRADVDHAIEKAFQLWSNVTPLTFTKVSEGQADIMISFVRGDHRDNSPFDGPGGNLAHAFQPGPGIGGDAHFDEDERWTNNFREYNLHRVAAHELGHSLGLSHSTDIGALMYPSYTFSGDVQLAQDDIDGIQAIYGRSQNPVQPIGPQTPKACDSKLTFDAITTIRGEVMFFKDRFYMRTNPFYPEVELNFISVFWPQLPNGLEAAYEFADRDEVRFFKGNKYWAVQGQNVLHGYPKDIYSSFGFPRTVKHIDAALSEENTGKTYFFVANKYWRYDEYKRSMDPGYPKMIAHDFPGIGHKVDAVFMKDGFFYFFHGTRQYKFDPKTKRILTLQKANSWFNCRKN
Description: FIG. 5 is a graph showing the effect of samples on MMP-1 activity. The data are expressed as % control MMP-1 activity. The horizontal line denotes 100% activity.
The matrix metalloproteinases (MMP) are a group of zinc dependent enzymes, which degrade varying components of the extracellular matrix in both normal and diseased tissue. MMP-1 (interstitial collagenase) is thought to initiate the cleavage of fibrillar collagen while MMP-9 (gelatinase) digests the denatured collagen fragments generated by MMP-1. The products of MMP-9 digestion are then free to be incorporated into new collagen fibrils. Elastase breaks down elastin. The expression of these enzymes is under strict control and changes as individuals age or are exposed to UV irradiation. Because MMP-1 is involved in initiation of collagen breakdown, it would be advantageous for skin care products to inhibit MMP-1 activity. […] Finally, elastase should be inhibited as to prevent digestion of elastin and the […] of the skin.
Commercially available kits were used for testing the effect of the samples on the activity of the MMPs of interest. For MMP-1, a kit from Amersham was used according to the manufacturer's specifications. For MMP-9 and Elastase, kits from Molecular Probes were used. The samples were prepared in the solvent noted in table I at stock concentrations of 100 mg/ml. […]

RAW 264.7 cells = assay: NO production by LPS stimulated RAW 264.7 cells (Griess reagent); type: cell-based, Murine; settings: for inhibitory effect on nitrite accumulation in culture supernatants: LPS stimulated RAW cells, in words; for Nitrite produced: LPS 100 ng/ml, LPS control 901.7
Description: FIG. 8 is a graph showing the effect of samples on NO production by RAW 264.7 cells. Data are expressed as % NO produced compared to the LPS stimulated positive control. L6=Lipochroman-6, NT=Nutriene tocotrienols, TQS=γ-Tocopherylquinone S, VC=Viapure Citrus, SZ=Soybean Zymbiosome, and NPR=NAB Pikea robusta.
Cells in skin can produce nitric oxide (NO) when exposed to UV light, and NO thus produced has the potential to induce age associated changes in skin. This study was performed in order to screen a panel of cosmetics and skin care raw materials for their effect on NO production by RAW 264.7 cells.
Murine RAW 264.7 cells were seeded in a 96 well plate at 1×10^5 cells /well. The plate was incubated overnight. The following day, the cells were treated with the samples at 0.001, 0.01, and 0.1% for 2 hours. The samples are listed below in Table II. Following the exposure period, LPS was added to the wells at 100 ng/ml. The plate was incubated overnight. Equal volumes of culture supernatant and Griess reagent were incubated for 15 min at room temperature and the absorbance at 540 nm was read. The amount of nitrite in the samples was calculated from a standard curve generated with sodium nitrite.

effect on MMP-1 activity [4] | SMILES | procollagen secretion [1] | elastin secretion, % media control elastin [2] | hyaluronic acid secretion [3] | inhibitory effect on nitrite accumulation in culture supernatants (RAW 264.7 cells) | inhibitory effect on nitrite accumulation in culture supernatants (RAW 264.7 cells; listed as L6) | Nitrite produced (RAW 264.7 cells; dose 0.001%) | Nitrite produced (RAW 264.7 cells; dose 0.01%) | Nitrite produced (RAW 264.7 cells; dose 0.1%)
 | O=C1O[C@H]([C@@H](O)CO)C(O)=C1O [Vitamin C, ascorbic acid] | 1744 ng/mL | 148% | 633 ng hyaluronic acid/ml culture supernatant |  |  |  |  | 
most potent activators | COC1=C(OC)C(=O)C(C/C=C(\C)CC/C=C(\C)CC/C=C(\C)CC/C=C(\C)CC/C=C(\C)CC/C=C(\C)CC/C=C(\C)CC/C=C(\C)CC/C=C(\C)CCC=C(C)C)=C(C)C1=O [CoQ10, 2,3,-dimethoxy-5-methyl-6-decaprenyl-benzoquinone] |  |  |  |  |  |  |  | 
 | COc1cc2c(cc1O)CCC(C)(C)O2 [Lipochroman-6] |  |  |  | most potent | more inhibitory activity than do mixed tocopherols | 1006.5 ng/mL | 750.7 ng/mL | 336.7 ng/mL
 | CC1=C(C)C(=O)C(CC[C@](C)(O)CCC[C@H](C)CCC[C@H](C)CCCC(C)C)=CC1=O [g-Tocopherylquinone S] |  |  |  | most potent |  | 754.2 ng/mL | 830.3 ng/mL | 217.9 ng/mL
